Values joined by “and” are separate entries in the source; they are usually repeats but may differ in a detail not shown here. Equal values may be shown once. Read-outs that look alike come from different tables or passages of the source.
Legend:
[1] = biological target: T1, SARS-CoV-2 spike RBD/ACE2 (Severe acute respiratory syndrome coronavirus 2, UniProt P0DTC2); assay: biochemical; type: binding, SARS-CoV-2 (USA-WA1/2020)
T1 construct: a SARS-CoV-2 RBD protein derived from USA-WA1/2020 and containing a C-terminal His tag; a full-length ACE2 peptide with a C-terminal Fc tag; purchased Sino Biological

Vero-E6 cells = assay: Resazurin cell viability assay in uninfected cells; type: cell-based
Protocol: (§1) A total of 20,000 Vero-E6 cells were plated in 96-well plates and incubated overnight before addition of compounds at defined concentrations; 0.1% DMSO vehicle control was added to wells in the absence of test compounds. All experimental conditions were performed in duplicate. Cells were then incubated at 37°C and 5% CO2 for 4 days before addition of resazurin (Sigma-Aldrich) to a final concentration of 20 μg/ml. Cells were incubated for an additional 4 h before fluorescence intensity was measured using a ClarioStar plate reader (BMG Labtech). Background fluorescence was subtracted from wells containing resazurin and D10+ medium but no cells.

PD-1/PD-L1 = biological target: T2, PD-1/PD-L1 (Homo sapiens, UniProt Q9NZQ7); assay: PD-1/PD-L1 AlphaScreen interaction assay; type: binding
T2 construct: purchased Sino Biological
T2 sequence (Q9NZQ7 19-239 limits assumed): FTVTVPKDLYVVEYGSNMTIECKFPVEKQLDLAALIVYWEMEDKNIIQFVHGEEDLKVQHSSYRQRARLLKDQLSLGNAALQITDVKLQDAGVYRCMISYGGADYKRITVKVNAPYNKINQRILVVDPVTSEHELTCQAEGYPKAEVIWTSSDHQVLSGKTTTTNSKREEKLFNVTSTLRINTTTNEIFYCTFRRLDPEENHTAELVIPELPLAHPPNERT
Protocol: PD-1 binding to PD-L1 was also determined using AlphaScreen technology. […] Next, 5 μl of PD-L1-Fc/protein A acceptor beads was added first to the plate, followed by 100 nl of test compound prepared as described above, followed by 5 μl of PD-1-His/nickel chelate donor beads. For each experiment, all conditions were performed in duplicate. Following 2 h of incubation at room temperature, data were collected as described above and normalized to percentage inhibition, where 100% equaled the AlphaScreen signal in the absence of PD-1-His, and 0% equaled the AlphaScreen signal in the presence of both proteins and 0.1% DMSO alone.

SARS-CoV-2 M^pro = biological target: T3, SARS-CoV-2 M^pro (Severe acute respiratory syndrome coronavirus 2, UniProt P0DTD1); assay: M^pro enzymatic assay (FRET fluorogenic peptide substrate); type: biochemical
T3 construct: QHD43415.1; amino acids [aa]; 3264 to 3567; HIS-SUMO (N, cleaved yes); made in house; host or cells: E. coli BL21(DE3)

[2] = test system: VSVΔG-S-GFP pseudovirus containing SARS-CoV-2 spike from B.1.1.7; type: cell-based, SARS-CoV-2 B.1.1.7; details: for % GFP+ nuclei, Average: 50 μM; for Infected cells at 50 μM (%), VSVΔG-S-GFP pseudovirus B.1.1.7: 24 h
[3] = test system: VSVΔG-S-GFP pseudovirus containing SARS-CoV-2 spike from B.1.351; type: cell-based, SARS-CoV-2 B.1.351; details: for % GFP+ nuclei, Average: 50 μM; for Infected cells at 50 μM (%), VSVΔG-S-GFP pseudovirus B.1.351: 24 h
[4] = Resazurin cell viability assay in uninfected cells; type: cell-based; details: African green monkey, uninfected Vero-E6 cells, resazurin, 4 days
Protocol: as §1

[5] = test system: VSVΔG-S-GFP pseudovirus containing SARS-CoV-2 spike (USA-WA1/2020)
[6] = 200 mg/kg; cited from earlier work
[7] = 200 mg/kg; cited from earlier work; remark: listed apart in the source
[8] = 100 mg/kg; cited from earlier work
[9] = test system: SARS-CoV-2 (BetaCov isolate); details: supernatant viral RNA by quantitative PCR after 48 h, read-out: EC50 in SARS-CoV-2-infected Vero-E6 cells; cited from earlier work
RBD with ACE2 = details: read-out: IC50, inhibition of binding of RBD with ACE2; cited from earlier work
SARS-CoV-2 = details: read-out: EC50, SARS-CoV-2 replication; cited from earlier work
[10] = read-out: IC50 for Spike/ACE2 AlphaScreen

## Cc1c(COc2cc(OCc3cccc(C#N)c3)c(CN3C[C@H](O)C[C@@H]3C(=O)O)cc2Cl)cccc1-c1ccc2c(c1)OCCO2 [BMS-1166, reference compound]
[1]; [10]
  IC50: > 100 µM

## CC(C)C[C@H](NC(=O)OCc1ccccc1)C(=O)N[C@@H](CC1CCNC1=O)C(O)S(=O)(=O)O (stereo partly shown) [GC-376, reference compound]
Vero-E6 cells; resazurin, 4 days
  CC50: > 10 µM

## Oc1ccc([C@@H]2c3c(O)cc(O)cc3[C@@H]3c4c(cc(O)cc4[C@H]2[C@@H]2c4cc(O)cc5c4[C@@H](c4cc(O)cc(O)c4[C@H]2c2ccc(O)cc2)[C@H](c2ccc(O)cc2)O5)O[C@H]3c2ccc(O)cc2)cc1 [Hopeaphenol, (–)-hopeaphenol]
[1]
  IC50: 0.11 µM
  Selectivity index: 257.3
PD-1/PD-L1
  IC50: 28.3 µM
SARS-CoV-2 M^pro
  IC50: 42.5 µM
[2]
  % GFP+ nuclei, Average: 1.83%
  Infected cells at 50 μM (%), VSVΔG-S-GFP pseudovirus B.1.1.7: 34.1 ± 13.6% and 34.1%
[3]
  % GFP+ nuclei, Average: 0.93%
  Infected cells at 50 μM (%), VSVΔG-S-GFP pseudovirus B.1.351: 20.4 ± 2.4% and 20.4%
[4]
  CC50 at 4 days: > 100 µM
[5]; 50 μM
  % GFP+ nuclei, Average: 0.69%
[5]; 24 h
  Infected cells at 50 μM (%), VSVΔG-S-GFP pseudovirus WA1/2020: 28.2 ± 1.2% and 28.2%
[6]
  Plasma triglyceride elevation in olive oil-treated mice: inhibit plasma triglyceride elevation
[7]
  Plasma glucose in sucrose-loaded mice: reduce plasma glucose
[8]
  Effect against LPS-induced liver injury in mice: hepatoprotective effects

## CCC(CC)COC(=O)[C@H](C)N[P@](=O)(OC[C@H]1O[C@@](C#N)(c2ccc3c(N)ncnn23)[C@H](O)[C@@H]1O)Oc1ccccc1 [Remdesivir, remdesivir, reference compound]
[4]
  CC50 at 4 days: > 10 µM

## Oc1ccc(/C=C/c2cc(O)cc(O)c2)cc1 [Resveratrol, resveratrol, reference compound]
[1]
  IC50: > 100 µM
[4]
  CC50 at 4 days: ~100 µM
[5]; 50 μM
  % GFP+ nuclei, Average: 2.36%
[5]; 50 μM, 24 h
  Total cell nuclei, % of nuclei observed in untreated, infected cells: 60.3 ± 7.0%
[5]; 24 h
  Infected cells at 50 μM (%), VSVΔG-S-GFP pseudovirus WA1/2020: 96.3 ± 14.7% and 96.3%
[9]
  EC50: 10.7 µM

## OC[C@H]1O[C@@H](Oc2cc3c4c(c2)[C@@H]([C@@H]2c5cc(O)cc6c5[C@@H](c5cc(O)cc(O)c5[C@H]2c2ccc(O)cc2)[C@H](c2ccc(O)cc2)O6)[C@H](c2ccc(O)cc2)c2c(O)cc(O)cc2[C@H]4[C@H](c2ccc(O)cc2)O3)[C@H](O)[C@@H](O)[C@@H]1O [Vatalbinoside A, vatalbinoside A]
[1]
  IC50: 0.24 µM
  Selectivity index: 92.9
PD-1/PD-L1
  IC50: 22.3 µM
SARS-CoV-2 M^pro
  IC50: 68.7 µM
[2]
  % GFP+ nuclei, Average: 2.35%
  Infected cells at 50 μM (%), VSVΔG-S-GFP pseudovirus B.1.1.7: 43.8 ± 3.4% and 43.8%
[3]
  % GFP+ nuclei, Average: 1.87%
  Infected cells at 50 μM (%), VSVΔG-S-GFP pseudovirus B.1.351: 41.1 ± 2.6% and 41.1%
[4]
  CC50 at 4 days: > 100 µM
[5]; 50 μM
  % GFP+ nuclei, Average: 0.99%
[5]; 24 h
  Infected cells at 50 μM (%), VSVΔG-S-GFP pseudovirus WA1/2020: 40.4 ± 16.7% and 40.4%

## Oc1ccc([C@@H]2c3c(O)cc(O)cc3[C@@H]3c4c(cc(O)c5c4[C@@H]2[C@H](c2ccc(O)cc2)[C@H]5c2cc(O)cc4c2[C@@H](c2cc(O)cc(O)c2)[C@H](c2ccc(O)cc2)O4)O[C@H]3c2ccc(O)cc2)cc1 [Vaticanol B, vaticanol B]
[1]
  IC50: 0.067 µM
  Selectivity index: 247.8
PD-1/PD-L1
  IC50: 16.6 µM
SARS-CoV-2 M^pro
  IC50: 47.6 µM
[2]
  % GFP+ nuclei, Average: 2.02%
  Infected cells at 50 μM (%), VSVΔG-S-GFP pseudovirus B.1.1.7: 37.7 ± 4.1% and 37.7%
[3]
  % GFP+ nuclei, Average: 3.29%
  Infected cells at 50 μM (%), VSVΔG-S-GFP pseudovirus B.1.351: 72.3 ± 7.3% and 72.3%
[4]
  CC50 at 4 days: > 100 µM
[5]; 50 μM
  % GFP+ nuclei, Average: 2.05%
[5]; 24 h
  Infected cells at 50 μM (%), VSVΔG-S-GFP pseudovirus WA1/2020: 83.7 ± 4.9% and 83.7%

## Oc1ccc([C@H]2Oc3cc(O)cc([C@@H]4[C@H](c5cc(O)cc(O)c5)[C@@H](c5ccc(O)cc5)O[C@H]4c4ccc(O)cc4)c3[C@@H]2c2cc(O)c3c(c2)[C@@H](c2cc(O)cc(O)c2)[C@H](c2ccc(O)cc2)O3)cc1 [kobophenol A]
RBD with ACE2
  IC50: 1.8 µM
SARS-CoV-2
  EC50: 71.6 µM

## REGN10933
[1]; [10]
  IC50: 0.00018 µM
Vero-E6 cells; 4 days of treatment
  Cytotoxicity by resazurin staining: no evidence of cytotoxicity

— article PMC8597786 (Antimicrobial Agents and Chemotherapy, 2021)
